Laboratory results: US9944654B2, “Nargenicin compounds and uses thereof as antibacterial agents” (priority 2014, dated 2018)
Converted amounts (≈) assume the structure as drawn. Read-outs that look alike come from different tables or passages of the source.

Columns and labels:
[1] = test system: Staphylococcus aureus MB6266 (MRSA COL); test: Nargenicin antibacterial assay (MIC), S. aureus; format: cell-based; settings: Staphylococcus aureus, MRSA, read-out: S. aureus COL (MIC), MHII broth + 50% human serum; * = some reduction of growth versus control at […]
[2] = test system: Pseudomonas aeruginosa MB5890 (CB1101, efflux-deleted); test: microbe, parasite or virus in culture; format: cell-based; settings: Pseudomonas aeruginosa, read-out: P. aeruginosa MB5890 efflux-del (MIC), MHII broth; * = some reduction of growth versus control at […]
[3] = target: T1, S. aureus DnaE (DNA polymerase III α-subunit homolog from Staphylococcus aureus) (Staphylococcus aureus, UniProt Q5HF71); test: biochemical; format: biochemical
T1 construct: SaDnaE (S. aureus DnaE residues 1-1065); 6xHis (N); made in house; host or cells: E. coli BL21-AI
T1 sequence (Q5HF71 1-1065): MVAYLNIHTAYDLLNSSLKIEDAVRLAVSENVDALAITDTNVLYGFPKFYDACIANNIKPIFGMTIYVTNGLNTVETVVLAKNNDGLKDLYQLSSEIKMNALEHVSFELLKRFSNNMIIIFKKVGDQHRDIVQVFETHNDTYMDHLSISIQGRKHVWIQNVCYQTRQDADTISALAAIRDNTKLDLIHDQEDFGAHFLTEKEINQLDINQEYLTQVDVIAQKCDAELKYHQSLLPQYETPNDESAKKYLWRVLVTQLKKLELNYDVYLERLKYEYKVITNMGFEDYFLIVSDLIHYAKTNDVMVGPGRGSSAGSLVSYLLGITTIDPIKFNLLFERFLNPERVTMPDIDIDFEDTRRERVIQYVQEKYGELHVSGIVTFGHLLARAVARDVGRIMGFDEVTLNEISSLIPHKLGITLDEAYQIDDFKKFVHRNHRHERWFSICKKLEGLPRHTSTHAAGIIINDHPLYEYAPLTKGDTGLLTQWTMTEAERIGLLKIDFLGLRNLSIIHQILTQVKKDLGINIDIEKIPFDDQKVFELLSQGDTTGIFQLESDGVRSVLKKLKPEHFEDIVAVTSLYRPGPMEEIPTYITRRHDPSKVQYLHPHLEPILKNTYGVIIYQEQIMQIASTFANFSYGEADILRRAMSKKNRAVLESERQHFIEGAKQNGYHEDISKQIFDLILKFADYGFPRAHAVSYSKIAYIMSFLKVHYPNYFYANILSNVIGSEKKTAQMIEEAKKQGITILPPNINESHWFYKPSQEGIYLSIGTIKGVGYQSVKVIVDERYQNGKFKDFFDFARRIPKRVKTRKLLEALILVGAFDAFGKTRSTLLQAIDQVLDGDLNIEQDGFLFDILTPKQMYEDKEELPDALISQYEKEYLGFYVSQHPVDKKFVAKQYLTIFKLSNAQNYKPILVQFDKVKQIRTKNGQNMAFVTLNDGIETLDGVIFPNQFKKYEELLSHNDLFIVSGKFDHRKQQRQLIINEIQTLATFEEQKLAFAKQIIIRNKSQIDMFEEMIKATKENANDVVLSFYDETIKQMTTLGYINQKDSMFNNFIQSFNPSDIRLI
Summary of the method: (§1)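 3H-dTTP (0.011 mM) incorporation into DNase I-activated calf thymus DNA, alongside the other three dNTPs at 0.025 mM, measured by filter counting after TCA precipitation. Reactions ran 30 min at 30° C., started with purified N-His DnaE: 0.8 μg/ml for E. coli, 0.05 μg/ml for S. aureus.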

[4] = test system: Streptococcus pneumoniae MB6357 (CL 2883); test: Nargenicin antibacterial assay (MIC), S. pneumoniae; format: cell-based; settings: Streptococcus pneumoniae, read-out: S. pneumoniae MB2883 (MIC), Isosensitest broth; * = some reduction of growth versus control at […]
[5] = target: T2, E. coli DnaE (DNA polymerase III α-subunit from Escherichia coli) (Escherichia coli, UniProt P10443); test: In vitro DnaE single enzyme assay (E. coli); format: biochemical
T2 construct: EcDnaE (E. coli DnaE residues 1-1160); 6xHis (N); made in house; host or cells: E. coli BL21(DE3)
Summary of the method: as §1

[6] = test system: Escherichia coli MB5747 (LS 883, tolC); test: microbe, parasite or virus in culture; format: cell-based; settings: Escherichia coli, read-out: E. coli LS883 tolC (MIC), MHII broth; * = some reduction of growth versus control at […]
[7] = read-out: E. coli DnaE IC50 (converted)

T2 sequence (P10443 whole entry, the tested form may be a part): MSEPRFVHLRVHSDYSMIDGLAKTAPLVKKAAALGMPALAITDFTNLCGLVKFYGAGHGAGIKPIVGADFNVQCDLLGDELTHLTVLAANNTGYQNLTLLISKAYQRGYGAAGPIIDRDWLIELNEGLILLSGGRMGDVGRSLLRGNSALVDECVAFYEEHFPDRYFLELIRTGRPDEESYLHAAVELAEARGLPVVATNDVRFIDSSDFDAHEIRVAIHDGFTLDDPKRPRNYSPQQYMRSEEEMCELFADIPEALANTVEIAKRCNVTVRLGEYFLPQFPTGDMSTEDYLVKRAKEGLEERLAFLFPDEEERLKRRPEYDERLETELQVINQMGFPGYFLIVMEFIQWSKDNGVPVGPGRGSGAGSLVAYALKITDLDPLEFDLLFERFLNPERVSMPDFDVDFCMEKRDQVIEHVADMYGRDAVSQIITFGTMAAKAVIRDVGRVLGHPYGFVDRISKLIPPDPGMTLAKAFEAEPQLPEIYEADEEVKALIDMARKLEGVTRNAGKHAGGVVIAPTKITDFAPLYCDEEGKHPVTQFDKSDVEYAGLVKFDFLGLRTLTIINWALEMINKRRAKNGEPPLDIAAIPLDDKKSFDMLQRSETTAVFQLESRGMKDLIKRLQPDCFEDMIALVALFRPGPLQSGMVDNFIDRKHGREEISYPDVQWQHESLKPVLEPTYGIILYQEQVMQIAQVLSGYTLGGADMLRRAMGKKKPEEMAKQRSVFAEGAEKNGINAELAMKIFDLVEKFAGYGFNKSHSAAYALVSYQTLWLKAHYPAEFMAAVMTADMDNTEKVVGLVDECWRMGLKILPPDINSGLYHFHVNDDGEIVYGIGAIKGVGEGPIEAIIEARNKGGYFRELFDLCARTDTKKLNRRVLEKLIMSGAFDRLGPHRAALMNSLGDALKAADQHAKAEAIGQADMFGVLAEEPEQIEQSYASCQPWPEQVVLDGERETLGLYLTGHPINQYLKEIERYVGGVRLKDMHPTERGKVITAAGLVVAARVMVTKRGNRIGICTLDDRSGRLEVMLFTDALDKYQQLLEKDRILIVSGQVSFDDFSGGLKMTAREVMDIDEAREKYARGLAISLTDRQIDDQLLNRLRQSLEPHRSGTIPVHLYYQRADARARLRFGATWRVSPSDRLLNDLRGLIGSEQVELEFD

Compound	MIC [1] [µg/mL]	MIC [2] [µg/mL]	IC50 ([3]; S. aureus DnaE IC50) [µM]	MIC [4] [µg/mL]	IC50 [5, 7] [µM]	MIC [6] [µg/mL]	IC50 ([3]; read-out: S. aureus DnaE IC50 (converted)) [µM]	IC50 ([5]; E. coli DnaE IC50) [µM]
CO[C@H]1CC2C=C[C@H]3[C@H]4O[C@]2(/C(C)=C/[C@@H](C)[C@@H]([C@@H](C)O)OC1=O)[C@@H]3[C@H](OC(N)=O)[C@@H](C)[C@H]4OC(=O)c1ccc[nH]1 (stereo partly drawn) [Example 38, (3R,4S,7S,10aR,11R,12R,13R,14R,14aS,14bS,E)-14-(carbamoyloxy)-4-((R)-1-hydroxyethyl)-7-methoxy-1,3,13-trimethyl-6-oxo-3,4,6,7,8,8a,10a,11,12,13,14,14 a-dodecahydro-11,14b-epoxynaphtho[2,1-e]oxecin-12-yl 1H-pyrrole-2-carboxylate]	32	> 128	0.0394	128 (≈ 229 µM)	~197	16 (≈ 28.6 µM)	–	–
CO[C@H]1CC2C=C[C@H]3[C@H]4O[C@]2(/C(C)=C/[C@@H](C)[C@@H]([C@@H](C)O)OC1=O)[C@@H]3[C@H](OC(=O)NC1CC1)[C@@H](C)[C@H]4OC(=O)c1ccc[nH]1 (stereo partly drawn) [Example 39]	> 128	> 128	–	> 128	–	> 128	15	> 167
CO[C@H]1CC2C=C[C@H]3[C@H]4O[C@]2(/C(C)=C/[C@@H](C)[C@@H]([C@@H](C)O)OC1=O)[C@@H]3[C@H](OC(=O)NS(=O)(=O)c1ccccc1)[C@@H](C)[C@H]4OC(=O)c1ccc[nH]1 (stereo partly drawn) [Example 40, (3R,4S,7S,10aR,11R,12R,13R,14R,14aS,14bS,E)-4-((R)-1-hydroxyethyl)-7-methoxy-1,3,13-trimethyl-6-oxo-14-(((phenylsulfonyl)carbamoyl)oxy)-3,4,6,7,8,8a,10a,11,12,13,14,14a-dodecahydro-11,14b-epoxynaphtho[2,1-e]oxecin-12-yl 1H-pyrrole-2-carboxylate]	> 128	> 128	1.57	> 128	> 143	> 128	–	–
CO[C@H]1C[C@H]2C=C[C@H]3[C@H]4O[C@]2(/C(C)=C/[C@@H](C)[C@@H]([C@@H](C)O)OC1=O)[C@@H]3[C@H](O)[C@@H](C)[C@H]4OC(=O)c1[nH]c(Br)c(Br)c1Br [Example 41, (3R,4S,7S,8aS,10aR,11R,12R,13R,14R,14aS,14bS,E)-14-hydroxy-4-((R)-1-hydroxyethyl)-7-methoxy-1,3,13-trimethyl-6-oxo-3,4,6,7,8,8a,10a,11,12,13,14,14a-dodecahydro-11,14b-epoxynaphtho[2,1-e]oxecin-12-yl3,4,5-tribromo-1H-pyrrole-2-carboxylate]	> 128	> 128	4.12	8 (≈ 10.6 µM)	–	> 128	–	79.8
CO[C@H]1CC2C=C[C@H]3[C@H]4O[C@]2(/C(C)=C/[C@@H](C)[C@@H](C(C)O)OC1=O)[C@@H]3[C@H](O)[C@@H](C)[C@H]4OC(=O)c1[nH]c(I)c(I)c1I (stereo partly drawn) [Example 42]	32	> 128	4.48	1 (≈ 1.12 µM)	44.8	> 128	–	–
CO[C@H]1C[C@H]2C=C[C@H]3[C@H]4O[C@]2(/C(C)=C/[C@@H](C)[C@@H]([C@@H](C)O)OC1=O)[C@@H]3[C@H](O)[C@@H](C)[C@H]4OC(=O)c1ccc(Br)[nH]1 [Example 43]	64	> 128	0.202	128 (≈ 215 µM)	75.7	8 (≈ 13.5 µM)	–	–
CO[C@H]1C[C@H]2C=C[C@H]3[C@H]4O[C@]2(/C(C)=C/[C@@H](C)[C@@H]([C@@H](C)O)OC1=O)[C@@H]3[C@H](O)[C@@H](C)[C@H]4OC(=O)c1ccc(Cl)[nH]1 [Example 44]	16	128 (≈ 233 µM)	< 0.0109	64 (≈ 116 µM)	49.1	8 (≈ 14.5 µM)	–	–
CO[C@H]1C[C@H]2C=C[C@H]3[C@H]4O[C@]2(/C(C)=C/[C@@H](C)[C@@H]([C@@H](C)O)OC1=O)[C@@H]3[C@H](O)[C@@H](C)[C@H]4OC(=O)c1cc(Br)c[nH]1 [Example 46]	8	128 (≈ 215 µM)	0.0151	64 (≈ 108 µM)	16.8	2 (≈ 3.36 µM)	–	–
CO[C@H]1C[C@H]2C=C[C@H]3[C@H]4O[C@]2(/C(C)=C/[C@@H](C)COC1=O)[C@@H]3[C@H](O)[C@@H](C)[C@H]4OC(=O)c1ccc[nH]1 [Example 47, (3R,7S,8aS,10aR,11R,12R,13R,14R,14aS,14bS,E)-14-hydroxy-7-methoxy-1,3,13-trimethyl-6-oxo-3,4,6,7,8,8a,10a,11,12,13,14,14a-dodecahydro-11,14b-epoxynaphtho[2,1-e]oxecin-12-yl 1H-pyrrole-2-carboxylate]	64	> 128	0.0891	> 128	> 212	16 (≈ 33.9 µM)	–	–
CO[C@H]1C[C@H]2C=C[C@H]3[C@H]4O[C@]2(/C(C)=C/[C@@H](C)[C@H](C)OC1=O)[C@@H]3[C@H](O)[C@@H](C)[C@H]4OC(=O)c1ccc[nH]1 [Example 48, (3R,4S,7S,8aS,10aR,11R,12R,13R,14R,14aS,14bS,E)-14-hydroxy-7-methoxy-1,3,4,13-tetramethyl-6-oxo-3,4,6,7,8,8a,10a,11,12,13,14,14a-dodecahydro-11,14b-epoxynaphtho[2,1-e]oxecin-12-yl 1H-pyrrole-2-carboxylate]	> 128	> 128	0.165	128 (≈ 264 µM)	–	64 (≈ 132 µM)	–	> 206
CC[C@@H]1OC(=O)[C@@H](OC)C[C@H]2C=C[C@H]3[C@H]4O[C@]2(/C(C)=C/[C@H]1C)[C@@H]3[C@H](O)[C@@H](C)[C@H]4OC(=O)c1ccc[nH]1 [Example 49]	> 128	> 128	0.56	> 128	> 200	64 (≈ 128 µM)	–	–
CO[C@H]1C[C@H]2C=C[C@H]3[C@H]4O[C@]2(/C(C)=C/[C@@H](C)[C@@H](c2ccccc2)OC1=O)[C@@H]3[C@H](O)[C@@H](C)[C@H]4OC(=O)c1ccc[nH]1 [Example 51]	0.25	> 128	< 0.011	> 128	14.6	> 128	–	–
CO[C@H]1C[C@H]2C=C[C@H]3[C@H]4O[C@]2(/C(C)=C/[C@@H](C)[C@H](c2ccccc2)OC1=O)[C@@H]3[C@H](O)[C@@H](C)[C@H]4OC(=O)c1ccc[nH]1 [Example 52]	> 128	> 128	1.1	> 128	73	> 128	–	–
CO[C@H]1C[C@H]2C=C[C@H]3[C@H]4O[C@]2(/C(C)=C/[C@H](C)[C@@H](c2ccccc2)OC1=O)[C@@H]3[C@H](O)[C@@H](C)[C@H]4OC(=O)c1ccc[nH]1 [Example 53]	> 128	> 128	0.183	> 128	73	> 128	–	–
